# Test system: androgenetic alopecia model in C57BL/6J mice
# Assay: Hair regeneration effects on androgenic alopecia C57 mouse model (DHT-induced)
# Assay type: in vivo, C57BL/6N mice
# Details: AVER n = 6, score 0-5
# From the text: Activity Assay Example 8: Hair Regeneration Effects of Compounds on Androgenic Alopecia C57 Mouse Model
# The purpose of this study was to compare the effect of the compounds prepared by the present invention as AR protein degraders on hair regrowth in an androgenetic alopecia model in C57BL/6J mice by transdermal application route of administration, and to provide data to support subsequent clinical trials.
# 2. Experimental Principle
# Name of test compound I: dihydrotestosterone DHT; name of test compound II: compound A46 of the present invention; name of test compound III: minoxidil.
# 4. Experimental animals: strain: C57BL/6N mice; age: 6-7 weeks; gender: male; number of animals: 70 (10 for later use); rearing environment: specific pathogen-free (SPF).
# 70 mice were deeply anesthetized, and the hair on the back of the mice was removed with an animal shaver, then the depilatory cream (Veet https://item.jd.com/6291245.html) was smeared evenly on the surface of the mice skin, and left 7-10 minutes. Then the hair was gently scraped off with a hair removal scraper against the direction of the hair, and finally the residual hair removal cream on the skin surface was fully washed with water to avoid burning the mice skin.
# This experiment was divided into 6 groups, and the DHT administration started on the day of hair removal, A46 is administered on day 2 after hair removal and is counted as day 1 (the day of hair removal is counted as day 0).
# 5.3 Test Compound Preparation Method
# 5.4 Observation and Measurement Indicators • 1) Body weight/g: From the first day of administration, body weight was weighed and recorded twice a week. • 2) Hair regeneration (anagen) score (0 points: no darkening of skin color in all areas; 1 point: darkening of gray skin color areas; 2 points: visible short hair; 3 points: thin hair; 4 points: thick hair; 5 points: full hair growth).
# All mice were photographed on day 1 after hair removal, and then photographed and scored daily from day 4 until the end of the experiment. • 3) At the end of the experiment, skin and blood collection operations were performed as needed. 5.5 Criteria for Drug Withdrawal and Experiment Termination
# Data are presented as average±standard error (AVE±SEM). One-way multi-level analysis of variance was used for statistics. The comparison between each drug group and the model group was performed by Stundent's t-test or rank sum test, and the p value was calculated. p<0.05 means there is a significant difference between the two groups, p<0.01 means there is a extremely significant difference between the two groups.
smiles,measurement,setting,value
Cc1ncsc1-c1ccc(CNC(=O)[C@@H]2C[C@@H](O)CN2C(=O)[C@@H](NC(=O)COCCCCOc2ccc(-c3ccc(N4C(=S)N(c5ccc(C#N)c(C(F)(F)F)c5F)C(=O)C4(C)C)cn3)cc2)C(C)(C)C)cc1 [Compound A46],Hair regeneration score,"0.5% skin smear BID + DHT 30 mpk, 0 day",0.00
same,Hair regeneration score,"0.5% skin smear BID + DHT 30 mpk, 3 days",0.00
same,Hair regeneration score,"0.5% skin smear BID + DHT 30 mpk, 5 days",0.00
same,Hair regeneration score,"0.5% skin smear BID + DHT 30 mpk, 7 days",0.00
same,Hair regeneration score,"0.5% skin smear BID + DHT 30 mpk, 10 days",0.33
same,Hair regeneration score,"0.5% skin smear BID + DHT 30 mpk, 12 days",0.50
same,Hair regeneration score,"0.5% skin smear BID + DHT 30 mpk, 14 days",1.00
same,Hair regeneration score,"0.5% skin smear BID + DHT 30 mpk, 17 days",1.67
same,Hair regeneration score,"1% skin smear BID + DHT 30 mpk, 0 day",0.00
same,Hair regeneration score,"1% skin smear BID + DHT 30 mpk, 3 days",0.00
same,Hair regeneration score,"1% skin smear BID + DHT 30 mpk, 5 days",0.00
same,Hair regeneration score,"1% skin smear BID + DHT 30 mpk, 7 days",0.00
same,Hair regeneration score,"1% skin smear BID + DHT 30 mpk, 10 days",0.33
same,Hair regeneration score,"1% skin smear BID + DHT 30 mpk, 12 days",0.83
same,Hair regeneration score,"1% skin smear BID + DHT 30 mpk, 14 days",1.50
same,Hair regeneration score,"1% skin smear BID + DHT 30 mpk, 17 days",2.00
same,Hair regeneration score,"3% skin smear BID + DHT 30 mpk, 0 day",0.00
same,Hair regeneration score,"3% skin smear BID + DHT 30 mpk, 3 days",0.00
same,Hair regeneration score,"3% skin smear BID + DHT 30 mpk, 5 days",0.00
same,Hair regeneration score,"3% skin smear BID + DHT 30 mpk, 7 days",0.00
same,Hair regeneration score,"3% skin smear BID + DHT 30 mpk, 10 days",0.50
same,Hair regeneration score,"3% skin smear BID + DHT 30 mpk, 12 days",1.17
same,Hair regeneration score,"3% skin smear BID + DHT 30 mpk, 14 days",1.83
same,Hair regeneration score,"3% skin smear BID + DHT 30 mpk, 17 days",2.83
